Like-named read-outs stand apart in the source and are kept apart here.
Legend:
[1] = tested on: zebrafish larvae; conditions: for "real" arrhythmia (atrium and ventricle beating very irregularly): bathing 6 hours; for induction of 2:1 atrioventricular block (atrium beats twice while the ventricle beats once): wild-type larvae bathed in drug, terfenadine 10 μM, astemizol 1 μM, diphenhydramine 100 μM, haloperidol 2 μM, droperidol 50 μM, thioridazin 10 μM, pimozide 0.5 μM, cisapride 5 μM; for arrest of the atrial and ventricular beat: 1 hour incubation
Experimental: About 50 zebrafish larvae were incubated for 2-7 d at 22-28° C. in petri dishes filled with 30 ml embryo medium.
At the day of the experiment 10 larvae were transferred to small petri dishes filled with 10 ml embryo medium, 0.5 ml MESAB solution (0.2% ethyl-m-aminobenzoate methane-sulfonate+1% Na2HPO4×2H2O, pH 7.2) and 10 μl of the respective drug (or +10 μl of a second drug) added from a 1000-fold stock solution prepared with DMSO, these three components were previously mixed in 50 ml plastic tubes (controls only receive 10 or 20 μl DMSO).
At certain time points the contractility of the heart and blood flow was monitored, and the heart rate was determined by counting the heart beat with the aid of a stereo-microscope.
In order to evaluate if zebrafish is a suitable model organism to study drug-induced QT-prolongation we investigated the effect of known QT-prolonging medicaments on the heart beat rate of zebrafish larvae. Compounds were added to the media in which the larvae were bathed and the heart beat rate was recorded by microscopy.

[2] = target: rapidly activating delayed rectifier current K^+ current IKr (Homo sapiens, UniProt Q12809); conditions: cited from earlier work
rapidly activating delayed rectifier current K^+ current IKr, sequence (Q12809 whole entry): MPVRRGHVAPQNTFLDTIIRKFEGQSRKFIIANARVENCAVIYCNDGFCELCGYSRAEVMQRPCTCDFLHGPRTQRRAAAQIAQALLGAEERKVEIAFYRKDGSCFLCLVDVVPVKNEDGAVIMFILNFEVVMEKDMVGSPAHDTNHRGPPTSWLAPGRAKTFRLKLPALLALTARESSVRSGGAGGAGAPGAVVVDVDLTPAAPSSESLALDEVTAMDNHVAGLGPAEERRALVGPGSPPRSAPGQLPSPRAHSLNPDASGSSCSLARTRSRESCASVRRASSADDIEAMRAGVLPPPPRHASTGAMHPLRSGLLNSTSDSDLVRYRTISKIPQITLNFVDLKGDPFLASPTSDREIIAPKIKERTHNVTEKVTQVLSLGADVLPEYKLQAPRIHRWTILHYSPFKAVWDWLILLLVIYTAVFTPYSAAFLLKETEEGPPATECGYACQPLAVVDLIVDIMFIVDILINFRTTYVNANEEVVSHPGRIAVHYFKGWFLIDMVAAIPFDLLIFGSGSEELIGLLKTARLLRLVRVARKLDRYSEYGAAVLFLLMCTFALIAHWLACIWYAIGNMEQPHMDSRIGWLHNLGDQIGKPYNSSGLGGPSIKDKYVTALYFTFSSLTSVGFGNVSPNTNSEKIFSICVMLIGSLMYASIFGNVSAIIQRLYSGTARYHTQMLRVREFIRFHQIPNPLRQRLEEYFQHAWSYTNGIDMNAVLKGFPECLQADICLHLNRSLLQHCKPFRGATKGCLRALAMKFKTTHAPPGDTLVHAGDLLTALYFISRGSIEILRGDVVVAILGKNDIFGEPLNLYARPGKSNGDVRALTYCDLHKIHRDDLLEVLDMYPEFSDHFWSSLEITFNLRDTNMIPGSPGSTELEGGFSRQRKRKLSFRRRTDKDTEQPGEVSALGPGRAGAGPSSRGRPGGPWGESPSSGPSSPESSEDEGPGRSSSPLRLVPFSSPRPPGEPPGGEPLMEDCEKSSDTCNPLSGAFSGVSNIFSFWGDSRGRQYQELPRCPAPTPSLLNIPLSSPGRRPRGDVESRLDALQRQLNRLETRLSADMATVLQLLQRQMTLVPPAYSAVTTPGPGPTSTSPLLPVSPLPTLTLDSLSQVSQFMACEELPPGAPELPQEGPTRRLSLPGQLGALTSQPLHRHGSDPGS

[3] = tested on: ZERG; assay: Antisense ZERG-knockdown: PMO injected into yolk of zebrafish embryos at the 1-4-cell stage, heart function and morphology scored; format: in vivo
Description: In one embodiment, preferred PMOs comprise a sequence complementary to contiguous nucleotides within nucleotides 1-150 of SEQ ID NO:1; an exemplary PMO sequence is presented in SEQ ID NO:3. As further detailed in the Examples, we generated an antisense PMO corresponding to the first 24 nucleotides of the ZERG coding sequence, as presented in SEQ ID NO:3, and injected these into the yolk of zebrafish embryos at the 1-4 cell stage, according to standard protocols. […] Thus, antisense PMOs may be used to knockdown the ZERG protein, and to phenocopy the breakdance mutant, as well as QT-prolonging drug-treated larvae.
24-mer antisense PMOs targeting the 5′ prime region of ZERG (SEQ ID NO:3; start 0-24: GACATGTCCGCGGCGCACGGGCAT) were injected at the 1-4-cell stage into the yolk of zebrafish embryos according to published methods (Nasevicius and Ekker, 2000). The PMO was obtained from AVI Biopharma (Corvallis, Oreg.) and was injected at 3, 6 and 9 ng per embryo, we used 50 embroys per concentration. The experiment was repeated five times. Heart function and morphological anaylsis of larvae were scored one to 5 d later. Controls included the injection of only the injection buffer.

[4] = cardiac myocytes, electrophysiology
[5] = 6 ng PMO per embryo, 2 days post-fertilization

## COc1ccc(CCN2CCC(Nc3nc4ccccc4n3Cc3ccc(F)cc3)CC2)cc1 [astemizole]
[1]; 100 nM
  incubation time until 2:1 heart beat occurred: 6 h
[1]; 200 nM
  "real" arrhythmia (atrium and ventricle beating very irregularly): arrhythmia occurred
[1]
  induction of 2:1 atrioventricular block (atrium beats twice while the ventricle beats once): induced a 2:1 atrioventricular block

## COc1cc(N)c(Cl)cc1C(=O)NC1CCN(CCCOc2ccc(F)cc2)CC1OC (stereo not shown) [cisapride]
[2]; [4]
  block of IKr: block
[1]; 10 μM
  "real" arrhythmia (atrium and ventricle beating very irregularly): arrhythmia occurred
[1]; 25 μM
  arrest of the atrial and ventricular beat: arrest of the atrial and ventricular beat
[1]
  induction of 2:1 atrioventricular block (atrium beats twice while the ventricle beats once): induced a 2:1 atrioventricular block

## CN(C)CCOC(c1ccccc1)c1ccccc1 [diphenhydramine]
[1]
  induction of 2:1 atrioventricular block (atrium beats twice while the ventricle beats once): induced a 2:1 atrioventricular block

## O=C(CCCN1CC=C(n2c(=O)[nH]c3ccccc32)CC1)c1ccc(F)cc1 [droperidol]
[1]
  induction of 2:1 atrioventricular block (atrium beats twice while the ventricle beats once): induced a 2:1 atrioventricular block

## NC1=NCC2c3ccccc3Cc3ccccc3N12 (stereo not shown) [epinastine]
[1]; up to 250 μM
  effect on heart beat rate: did not affect heart beat rate

## O=C(CCCN1CCC(O)(c2ccc(Cl)cc2)CC1)c1ccc(F)cc1 [haloperidol]
[2]
  block of IKr: block
[1]; 10 μM
  "real" arrhythmia (atrium and ventricle beating very irregularly): arrhythmia occurred
[1]
  induction of 2:1 atrioventricular block (atrium beats twice while the ventricle beats once): induced a 2:1 atrioventricular block

## O=c1[nH]c2ccccc2n1C1CCN(CCCC(c2ccc(F)cc2)c2ccc(F)cc2)CC1 [pimozide]
[2]
  block of IKr: block
[1]; 200 nM
  incubation time until 2:1 heart beat occurred: 3 h
[1]; 10 μM
  arrest of the atrial and ventricular beat: arrest of the atrial and ventricular beat
[1]
  induction of 2:1 atrioventricular block (atrium beats twice while the ventricle beats once): induced a 2:1 atrioventricular block

## CC(C)NCC(O)c1ccc(NS(C)(=O)=O)cc1 (stereo not shown) [sotalol]
[2]; [4]
  block of IKr: block

## CC(C)(C)c1ccc(C(O)CCCN2CCC(C(O)(c3ccccc3)c3ccccc3)CC2)cc1 (stereo not shown) [terfenadine]
[1]
  induction of 2:1 atrioventricular block (atrium beats twice while the ventricle beats once): induced a 2:1 atrioventricular block

## CSc1ccc2c(c1)N(CCC1CCCCN1C)c1ccccc1S2 (stereo not shown) [thioridazine]
[1]; 10 μM
  "real" arrhythmia (atrium and ventricle beating very irregularly): arrhythmia occurred
[1]
  induction of 2:1 atrioventricular block (atrium beats twice while the ventricle beats once): induced a 2:1 atrioventricular block

## PMO: 24-mer antisense PMO targeting the 5′ region of ZERG (SEQ ID NO:3): GACATGTCCGCGGCGCACGGGCAT (antisense GACATGTCCGCGGCGCACGGGCAT; all phosphorodiamidate morpholino (PMO))
[3]; 3 ng PMO per embryo
  larvae appearing wild-type: approximately 5%
  larvae showing a slight bradycardia: approximately 81%
  larvae showing the 2:1 phenotype: approximately 18%
[3]; 6 ng PMO per embryo
  bradycardia and other visible abnormalities: All larvae showed a slight bradycardia and no other visible abnormalities
[3]; [5]
  embryos showing irregular arrhythmia, atrial beat rate strongly reduced and uncoordinated: 28%
  embryos showing the 2:1 heart beat: 67%
[3]; 6 ng PMO per embryo, day 3
  larvae with a 2:1 heart beat: 10%
[3]; 6 ng PMO per embryo, day 5
  phenotype compared with wildtype: all larvae were indistinguishable from wildtype larvae
[3]; 9 ng PMO per embryo
  day of death after strong necrosis beginning with day 4: ~6 days
  heart morphology: changed to a pattern known for dilative cardiomyopathy
  larvae with strongly reduced heart beat rate and contractility, both chambers beating 1:1, circulation strongly reduced or absent: 90%
[3]; 9 ng PMO per embryo, day 2
  edema and blood accumulation: heart edema and blood accumulated on the yolk sac
[3]; injected into yolk at the 1-4 cell stage, dose not given
  PMO-injected larvae displaying the 2:1 phenotype: About 90%
